pIC50, pKd: −log10 of the molar value.
Experiments:
full-length human RORγt = molecular target: T1, full-length human RORγt (Homo sapiens, UniProt P51449); assay: RORγt (full-length human) Reporter Assay, Conditions A; format: cell-based; conditions: for pIC50: HEK293T cells, GAL4-DBD-RORγt, luciferase, read-out: RORγt (FL) Reporter Assay A, IC50; for inhibition at 6 µM: read-out: RORγt (FL) Reporter Assay A, % inhibition @ 6 μM, 6 μM compound; for inhibition at 2 µM: read-out: RORγt (FL) Reporter Assay A, % inhibition (* at 2 μM), 2 μM compound concentration (footnote *)
T1 construct: expressed in transfected cells; host or cells: HEK293T, transiently transfected with pCMV-BD-ROR
T1 sequence (P51449 1-497 isoform P51449-2): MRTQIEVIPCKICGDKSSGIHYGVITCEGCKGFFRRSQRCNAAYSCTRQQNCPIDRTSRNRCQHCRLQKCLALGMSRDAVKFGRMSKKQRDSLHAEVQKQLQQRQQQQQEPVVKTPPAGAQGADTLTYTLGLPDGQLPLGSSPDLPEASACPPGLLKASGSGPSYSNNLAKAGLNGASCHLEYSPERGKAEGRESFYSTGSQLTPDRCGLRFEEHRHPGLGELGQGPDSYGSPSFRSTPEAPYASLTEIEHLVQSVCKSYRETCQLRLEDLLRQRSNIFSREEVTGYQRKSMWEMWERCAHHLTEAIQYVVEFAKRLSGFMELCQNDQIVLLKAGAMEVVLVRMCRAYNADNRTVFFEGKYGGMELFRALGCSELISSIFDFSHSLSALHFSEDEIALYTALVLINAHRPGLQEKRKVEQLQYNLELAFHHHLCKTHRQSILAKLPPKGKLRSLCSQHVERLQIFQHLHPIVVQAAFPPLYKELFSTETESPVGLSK
Description: After overnight (16 to 20 hours) incubation, media were removed and cells were lysed with 20 μL 1× Passive Lysis Buffer (Promega) for 10-15 minutes. Luminescence was measured using a BMG LUMIstar OPTIMA plate reader, after addition of 75 μL/well firefly luciferase buffer, followed by 75 μL/well Renilla luciferase buffer. To calculate the effect of compounds on RORγt activity, firefly values were normalized against values of DMSO only and values of reference compound at saturating concentration, then further normalized against Renilla signals. IC50s were generated by plotting final Renilla normalized data against compound concentration and percent inhibition was calculated against DMSO control.

[1] = molecular target: T2, human RORγt ligand binding domain (RORγt LBD) (Homo sapiens, UniProt P51449); assay: RORγt ThermoFluor assay; conditions: estimated from thermal shift concentration response
T2 construct: His-tag (N); TurboTEV protease cleavage site (ENLYFQG) (N); made in house; host or cells: E. coli (pHIS1, a modified pET expression vector)
T2 sequence (P51449 with tags, fused parts or gaps): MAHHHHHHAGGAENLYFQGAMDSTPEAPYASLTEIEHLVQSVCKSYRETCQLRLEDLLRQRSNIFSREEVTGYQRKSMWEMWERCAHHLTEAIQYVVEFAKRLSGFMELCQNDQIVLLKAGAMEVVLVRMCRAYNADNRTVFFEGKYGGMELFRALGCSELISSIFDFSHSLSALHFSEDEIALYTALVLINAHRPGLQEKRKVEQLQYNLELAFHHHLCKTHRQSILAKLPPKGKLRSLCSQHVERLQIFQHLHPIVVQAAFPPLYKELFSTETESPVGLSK
Description: This approach is applicable to a wide variety of systems, and rigorous in theoretical interpretation through quantitation of equilibrium binding constants (KD).
The shift in the melting point described as a ΔTm is proportional to the concentration and affinity of the ligand.
Protein and compound solutions are dispensed into black 384-well polypropylene PCR microplates (Abgene) and overlayed with silicone oil (1 μL, Fluka, type DC 200) to prevent evaporation.
Bar-coded assay plates are robotically loaded onto a thermostatically controlled PCR-type thermal block and then heated at a typical ramp-rate of 1° C./min for all experiments.
Fluorescence was measured by continuous illumination with UV light (Hamamatsu LC6) supplied via fiber optic and filtered through a band-pass filter (380-400 nm; >6 OD cutoff). Fluorescence emission of the entire 384-well plate was detected by measuring light intensity using a CCD camera (Sensys, Roper Scientific) filtered to detect 500±25 nm, resulting in simultaneous and independent readings of all 384 wells. Images were collected at each temperature, and the sum of the pixel intensity in a given area of the assay plate was recorded versus temperature. Reference wells contained RORγt without compounds, and the assay conditions were as follows: • 0.065 mg/mL RORγt • 60 μM 1,8-ANS • 100 mM Hepes, pH 7.0 • 10 mM NaCl • 2.5 mM GSH • 0.002% Tween-20
Project compounds were arranged in a pre-dosed mother plate (Greiner Bio-one) wherein compounds are serially diluted in 100% DMSO by 1:2 from a high concentration of 10 mM over 12 columns within a series (column 12 is a reference well containing DMSO, no compound). The compounds were robotically dispensed directly into assay plates (1×=46 nL) using a Hummingbird capillary liquid handling instrument (Digilab). Following compound dispense, protein and dye in buffer was added to achieve the final assay volume of 3 μL, followed by 1 μL of silicone oil.

pIC50 (full-length human RORγt)	inhibition at 6 µM (full-length human RORγt)	pKd [1]	inhibition at 2 µM (full-length human RORγt)	inhibition at 0.67 µM (full-length human RORγt; 0.67 μM compound concentration, read-out: RORγt (FL) Reporter Assay A, % inhibition (** at 0.67 μM))	Compound
7.03	98%	8.00			C[C@H](NS(=O)(=O)c1ccc(-c2sc(-c3nnc(C(C)(C)O)o3)nc2C(=O)N2CCC(F)(F)CC2)c(F)c1C(F)(F)F)C(F)(F)F [Example 25, 4-(4-(4,4-Difluoropiperidine-1-carbonyl)-2-(5-(2-hydroxypropan-2-yl)-1,3,4-oxadiazol-2-yl)thiazol-5-yl)-3-fluoro-2-(trifluoromethyl)-N—((S)-1,1,1-trifluoropropan-2-yl)benzenesulfonamide]
7.48	107%	9.05			CC[C@H](NS(=O)(=O)c1ccc(-c2sc(-c3nnc(C(C)(C)O)o3)nc2C(=O)N2CCC(F)(F)CC2)c(Cl)c1F)C(F)(F)F [Example 6/15, (S)-3-Chloro-4-(4-(4,4-difluoropiperidine-1-carbonyl)-2-(5-(2-hydroxypropan-2-yl)-1,3,4-oxadiazol-2-yl)thiazol-5-yl)-2-fluoro-N-(1,1,1-trifluorobutan-2-yl)benzenesulfonamide]
7.08		8.20	104%		CC(C)(O)c1nnc(-c2nc(C(=O)N3CCC(F)(F)CC3)c(-c3ccc(CC(O)(C(F)(F)F)C(F)(F)F)c(Cl)c3)s2)o1 [Example 8/3, (5-(3-Chloro-4-(3,3,3-trifluoro-2-hydroxy-2-(trifluoromethyl)propyl)phenyl)-2-(5-(2-hydroxypropan-2-yl)-1,3,4-oxadiazol-2-yl)thiazol-4-yl)(4,4-difluoropiperidin-1-yl)methanone]
7.85		8.15	104%		CCN(CC)C(=O)c1nc(-c2cccc(C(C)(C)O)n2)sc1-c1ccc(S(=O)(=O)N[C@@H](C)C(F)(F)F)c(Cl)c1Cl [Example 17, (S)-5-(2,3-Dichloro-4-(N-(1,1,1-trifluoropropan-2-yl)sulfamoyl)phenyl)-N,N-diethyl-2-(6-(2-hydroxypropan-2-yl)pyridin-2-yl)thiazole-4-carboxamide]
7.89		9.00	105%		CC[C@H](NS(=O)(=O)c1ccc(-c2sc(-c3nnc(C(C)(C)O)o3)nc2C(=O)N(CC)CC)c(Cl)c1Cl)C(F)(F)F [Example 6, (S)-5-(2,3-Dichloro-4-(N-(1,1,1-trifluorobutan-2-yl)sulfamoyl)phenyl)-N,N-diethyl-2-(5-(2-hydroxypropan-2-yl)-1,3,4-oxadiazol-2-yl)thiazole-4-carboxamide]
7.96		9.38		105%	COC1(c2nnc(-c3nc(C(=O)N4CCC(F)(F)CC4)c(-c4ccc(S(=O)(=O)N[C@@H](C)C(F)(F)F)c(Cl)c4Cl)s3)o2)CC1 [Example 1/2, (S)-2,3-Dichloro-4-(4-(4,4-difluoropiperidine-1-carbonyl)-2-(5-(1-methoxycyclopropyl)-1,3,4-oxadiazol-2-yl)thiazol-5-yl)-N-(1,1,1-trifluoropropan-2-yl)benzenesulfonamide]
5.96	90%	6.23			CC[C@H](NS(=O)(=O)c1ccc(-c2sc(-c3nnc(C(C)(C)O)o3)nc2C(=O)N2CC(F)(F)C2)c(Cl)c1)C(F)(F)F [Example 6/13, (S)-3-Chloro-4-(4-(3,3-difluoroazetidine-1-carbonyl)-2-(5-(2-hydroxypropan-2-yl)-1,3,4-oxadiazol-2-yl)thiazol-5-yl)-N-(1,1,1-trifluorobutan-2-yl)benzenesulfonamide]
7.85		8.18	100%		C[C@H](NS(=O)(=O)c1ccc(-c2sc(-c3cnn[nH]3)nc2C(=O)N2CCCC[C@@H]2C)c(Cl)c1Cl)C(F)(F)F [Example 16, 2,3-Dichloro-4-(4-((S)-2-methylpiperidine-1-carbonyl)-2-(1H-1,2,3-triazol-5-yl)thiazol-5-yl)-N—((S)-1,1,1-trifluoropropan-2-yl)benzenesulfonamide]
7.42	108%	8.12			C[C@H](NS(=O)(=O)c1ccc(-c2sc(-c3nnc(C(C)(C)O)o3)nc2C(=O)N2CCC(F)(F)C2)c(Cl)c1Cl)C(F)(F)F [Example 6/2, (S)-2,3-Dichloro-4-(4-(3,3-difluoropyrrolidine-1-carbonyl)-2-(5-(2-hydroxypropan-2-yl)-1,3,4-oxadiazol-2-yl)thiazol-5-yl)-N-(1,1,1-trifluoropropan-2-yl)benzenesulfonamide]
7.16	104%	8.03			CC[C@H](NS(=O)(=O)c1ccc(-c2sc(-c3nnc(C(C)(C)O)o3)nc2C(=O)N2CCC(F)CC2)c(Cl)c1)C(F)(F)F [Example 6/11, (S)-3-Chloro-4-(4-(4-fluoropiperidine-1-carbonyl)-2-(5-(2-hydroxypropan-2-yl)-1,3,4-oxadiazol-2-yl)thiazol-5-yl)-N-(1,1,1-trifluorobutan-2-yl)benzenesulfonamide]
7.57	107%	8.00			CCN(CC)C(=O)c1nc(-c2nnc(CC(C)(C)O)o2)sc1-c1ccc(S(=O)(=O)N[C@@H](C)C(F)(F)F)c(Cl)c1Cl [Example 3/3, (S)-5-(2,3-Dichloro-4-(N-(1,1,1-trifluoropropan-2-yl)sulfamoyl)phenyl)-N,N-diethyl-2-(5-(2-hydroxy-2-methylpropyl)-1,3,4-oxadiazol-2-yl)thiazole-4-carboxamide]
7.00	105%	7.68			CC(C)(O)c1nnc(-c2nc(C(=O)N3CCC(F)(F)CC3)c(-c3ccc(S(=O)(=O)NC4(C(F)F)CC4)c(F)c3Cl)s2)o1 [Example 6/17, 3-Chloro-N-(1-(difluoromethyl)cyclopropyl)-4-(4-(4,4-difluoropiperidine-1-carbonyl)-2-(5-(2-hydroxypropan-2-yl)-1,3,4-oxadiazol-2-yl)thiazol-5-yl)-2-fluorobenzenesulfonamide]
7.00	104%	11.52			CC[C@H](NS(=O)(=O)c1ccc(-c2sc(-c3nnc(CC(C)(C)C(=O)O)o3)nc2C(=O)N2CCCC[C@@H]2C)c(Cl)c1Cl)C(F)(F)F [Example 2, 3-(5-(5-(2,3-Dichloro-4-(N—((S)-1,1,1-trifluorobutan-2-yl)sulfamoyl)phenyl)-4-((S)-2-methylpiperidine-1-carbonyl)thiazol-2-yl)-1,3,4-oxadiazol-2-yl)-2,2-dimethylpropanoic acid]
7.59	105%	9.42			C[C@H](NS(=O)(=O)c1ccc(-c2sc(-c3nnc(C(C)(C)O)o3)nc2C(=O)N2CCCC[C@@H]2C)c(Cl)c1Cl)C(F)(F)F [Example 4/3, 2,3-Dichloro-4-(2-(5-(2-hydroxypropan-2-yl)-1,3,4-oxadiazol-2-yl)-4-((S)-2-methylpiperidine-1-carbonyl)thiazol-5-yl)-N—((S)-1,1,1-trifluoropropan-2-yl)benzenesulfonamide]
